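Five compound concentrations were applied to cells in 96-well plates for 48 hours; endpoints were derived by simple linear interpolation of the resulting dose-response curve. TGI is the concentration that stops growth completely.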
Key:
Experiment in all cases: NCI anticancer screen, dose series, 48 h
[1] = tested on: NCI-H226 lung
[2] = tested on: ACHN renal
[3] = tested on: EKVX NSCLC
[4] = tested on: NCI-H23 lung
[5] = tested on: M19-MEL melanoma
[6] = tested on: OVCAR-3 ovarian
[7] = tested on: MOLT-4 leukemia
[8] = tested on: NCI-H460 lung
[9] = tested on: HT29 colon
[10] = tested on: HCC-2998 colon
[11] = tested on: DLD-1 colon
[12] = tested on: SK-MEL-2 melanoma
[13] = tested on: COLO 205 colon
[14] = tested on: SN12C renal
[15] = tested on: DMS 114 small cell lung
[16] = tested on: SF-539 CNS
[17] = tested on: CAKI-1 renal
[18] = tested on: CCRF-CEM leukemia
[19] = tested on: HCT-116 colon
[20] = tested on: SK-MEL-28 melanoma
[21] = tested on: A549 NSCLC
[22] = tested on: HOP-62 NSCLC
[23] = tested on: OVCAR-4 ovarian
[24] = tested on: SF-295 CNS
[25] = tested on: SNB-75 CNS
[26] = tested on: OVCAR-5 ovarian
[27] = tested on: SK-MEL-5 melanoma
[28] = tested on: HL-60(TB) leukemia
[29] = tested on: HOP-18 NSCLC
[30] = tested on: RXF 393 renal
[31] = tested on: SNB-78 CNS
[32] = tested on: LXFL 529 NSCLC
[33] = tested on: UO-31 renal
[34] = tested on: K-562 leukemia
[35] = tested on: LOX IMVI melanoma
[36] = tested on: SF-268 CNS
[37] = tested on: 786-0 renal
[38] = tested on: KM12 colon
[39] = tested on: TK-10 renal
[40] = tested on: XF 498 CNS
[41] = tested on: NCI-H522 lung
[42] = tested on: SW-620 colon
[43] = tested on: U251 CNS
[44] = tested on: RPMI-8226 leukemia
[45] = tested on: SNB-19 CNS
[46] = tested on: DMS 273 small cell lung
[47] = tested on: SK-OV-3 ovarian
[48] = tested on: KM20L2 colon
[49] = tested on: UACC-257 melanoma
[50] = tested on: IGROV1 ovarian
[51] = tested on: HOP-92 NSCLC
[52] = tested on: M14 melanoma
[53] = tested on: UACC-62 melanoma
[54] = tested on: SR leukemia
[55] = tested on: OVCAR-8 ovarian

Measured: TGI

CC1(C)C2=CCCC(=O)[C@@]2(C)CC[C@@H]1O
> 100 µM: all assays above
